Patent US6376497B1, “Antifungal azole derivatives having a fluorinated vinyl group and process for preparing same” (Korea Research Institute of Chemical Technology, priority 1999, dated 2002)

Columns and labels:
Experiment in all cases: In vitro antifungal activity, microbroth dilution MIC
Format in all cases: cell-based
[1] = tested on: Aspergillus furnigatus B. 19119; conditions: 4 to 48 hours; for Minimal inhibitory concentration (MIC): A furnigatus B. 19119, RPMI-1640, 35° C.; for Minimal inhibitory concentration(MIC), A furnigatus B. 19119: RPMI-1640, 35° C., no growth observed
How it was run: (§1)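 Broth microdilution adapted from NCCLS M27, in RPMI-1640 with 0.165 M MOPS, pH 7.0. Yeast or mould inoculum at 2×10^3 CFU/ml was mixed 1:1 with DMSO-derived compound solutions (200 to 0.10 μg/ml before mixing) and incubated at 35 °C for 4 to 48 h. MIC was the concentration showing no growth.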

[2] = tested on: Aspergillus niger A. 16404; conditions: 4 to 48 hours; for Minimal inhibitory concentration (MIC): A. niger A. 16404, RPMI-1640, 35° C.; for Minimal inhibitory concentration(MIC), A. niger A. 16404: RPMI-1640, 35° C., no growth observed
How it was run: as §1

[3] = tested on: Candida albicans A. 10231; conditions: C. albicans A. 10231, RPMI-1640, 35° C., 4 to 48 hours
How it was run: as §1

Candida albicans C1-2 = conditions: C. albicans C1-2, RPMI-1640, 35° C., 4 to 48 hours
How it was run: as §1

[4] = tested on: Candida albicans IFO. 1385; conditions: 4 to 48 hours; for Minimal inhibitory concentration (MIC): C. albicans IFO. 1385, RPMI-1640, 35° C.; for Minimal inhibitory concentration(MIC), C. albicans IFO. 1385: RPMI-1640, 35° C., no growth observed
How it was run: as §1

Candida krusei K. 11655 = conditions: 4 to 48 hours; for Minimal inhibitory concentration (MIC): C. krusei K. 11655, RPMI-1640, 35° C.; for Minimal inhibitory concentration(MIC), C. krusei K. 11655: RPMI-1640, 35° C., no growth observed
How it was run: as §1

[5] = tested on: Candida parapsitosis A. 7330; conditions: 4 to 48 hours; for Minimal inhibitory concentration (MIC): C. parapsitosis A. 7330, RPMI-1640, 35° C.; for Minimal inhibitory concentration(MIC), C. parapsitosis A. 7330: RPMI-1640, 35° C., no growth observed
How it was run: as §1

[6] = tested on: Candida pseudotropicalis K. 11658; conditions: 4 to 48 hours; for Minimal inhibitory concentration (MIC): C. pseudotropicalis K. 11658, RPMI-1640, 35° C.; for Minimal inhibitory concentration(MIC), C. pseudotropicalis K. 11658: RPMI-1640, 35° C., no growth observed
How it was run: as §1

[7] = tested on: Candida tropicalis A. 13803; conditions: 4 to 48 hours; for Minimal inhibitory concentration (MIC): C. tropicalis A. 13803, RPMI-1640, 35° C.; for Minimal inhibitory concentration(MIC), C. tropicalis A. 13803: RPMI-1640, 35° C., no growth observed
How it was run: as §1

[8] = tested on: Cryptococcus neoformans A. 34144; conditions: 4 to 48 hours; for Minimal inhibitory concentration (MIC): Cry. neoformans A. 34144, RPMI-1640, 35° C.; for Minimal inhibitory concentration(MIC), Cry. neoformans A. 34144: RPMI-1640, 35° C., no growth observed
How it was run: as §1

[9] = tested on: Cryptococcus neoformans B. 42419; conditions: 4 to 48 hours; for Minimal inhibitory concentration (MIC): Cry. neoformans B. 42419, RPMI-1640, 35° C.; for Minimal inhibitory concentration(MIC), Cry. neoformans B. 42419: RPMI-1640, 35° C., no growth observed
How it was run: as §1

[10] = tested on: Cryptococcus neoformans IFM. 40092; conditions: 4 to 48 hours; for Minimal inhibitory concentration (MIC): Cry. neoformans IFM. 40092, RPMI-1640, 35° C.; for Minimal inhibitory concentration(MIC), Cry. neoformans IFM. 40092: RPMI-1640, 35° C., no growth observed
How it was run: as §1

[11] = tested on: Torulopsis glabrata B. 16205; conditions: 4 to 48 hours; for Minimal inhibitory concentration (MIC): T. glabrata B. 16205, RPMI-1640, 35° C.; for Minimal inhibitory concentration(MIC), T. glabrata B. 16205: RPMI-1640, 35° C., no growth observed
How it was run: as §1

[12] = tested on: Trichophyton mentagrophytes A. 9129; conditions: 4 to 48 hours; for Minimal inhibitory concentration (MIC): T. mentagrophytes A. 9129, RPMI-1640, 35° C.; for Minimal inhibitory concentration(MIC), T. mentagrophytes A. 9129: RPMI-1640, 35° C., no growth observed
How it was run: as §1

[13] = tested on: Trichophyton mentagrophytes B. 32663; conditions: 4 to 48 hours; for Minimal inhibitory concentration (MIC): T. mentagrophytes B. 32663, RPMI-1640, 35° C.; for Minimal inhibitory concentration(MIC), T. mentagrophytes B. 32663: RPMI-1640, 35° C., no growth observed
How it was run: as §1

SMILES	Minimal inhibitory concentration (MIC) [1]	Minimal inhibitory concentration (MIC) [2]	Minimal inhibitory concentration (MIC) [3]	Minimal inhibitory concentration (MIC) (Candida albicans C1-2)	Minimal inhibitory concentration (MIC) [4]	Minimal inhibitory concentration (MIC) (Candida krusei K. 11655)	Minimal inhibitory concentration (MIC) [5]	Minimal inhibitory concentration(MIC), A furnigatus B. 19119 [1]	Minimal inhibitory concentration(MIC), A. niger A. 16404 [2]	Minimal inhibitory concentration(MIC), C. albicans IFO. 1385 [4]	Minimal inhibitory concentration(MIC), C. krusei K. 11655 (Candida krusei K. 11655)	Minimal inhibitory concentration(MIC), C. parapsitosis A. 7330 [5]	Minimal inhibitory concentration(MIC), C. pseudotropicalis K. 11658 [6]	Minimal inhibitory concentration(MIC), C. tropicalis A. 13803 [7]	Minimal inhibitory concentration(MIC), Cry. neoformans A. 34144 [8]	Minimal inhibitory concentration(MIC), Cry. neoformans B. 42419 [9]	Minimal inhibitory concentration(MIC), Cry. neoformans IFM. 40092 [10]	Minimal inhibitory concentration(MIC), T. glabrata B. 16205 [11]	Minimal inhibitory concentration(MIC), T. mentagrophytes A. 9129 [12]	Minimal inhibitory concentration(MIC), T. mentagrophytes B. 32663 [13]	further results
FC(OCC1COC(Cn2ccnc2)(c2ccc(F)cc2F)O1)=C(c1cccs1)C(F)(F)F (mixture of isomers) [Ex. 68]	1.56 µg/mL	12.5 µg/mL	6.25 µg/mL	12.5 µg/mL	0.78 µg/mL	50.0 µg/mL	>100 µg/mL	–	–	–	–	–	–	–	–	–	–	–	–	–	Minimal inhibitory concentration (MIC) [6]: 25.0 µg/mL; Minimal inhibitory concentration (MIC) [7]: 50.0 µg/mL; Minimal inhibitory concentration (MIC) [8]: 1.56 µg/mL; Minimal inhibitory concentration (MIC) [9]: 0.78 µg/mL; Minimal inhibitory concentration (MIC) [10]: ≦0.10 μg/ml; Minimal inhibitory concentration (MIC) [11]: 3.13 µg/mL; Minimal inhibitory concentration (MIC) [12]: 1.56 µg/mL; Minimal inhibitory concentration (MIC) [13]: 1.56 µg/mL
FC(=Cc1ccccc1)OCC1COC(Cn2cncn2)(c2ccc(Cl)cc2Cl)O1 (mixture of isomers) [Ex. 69]	6.25 µg/mL	6.25 µg/mL	25.0 µg/mL	25.0 µg/mL	3.13 µg/mL	12.5 µg/mL	>100 µg/mL	–	–	–	–	–	–	–	–	–	–	–	–	–	Minimal inhibitory concentration (MIC) [6]: 6.25 µg/mL; Minimal inhibitory concentration (MIC) [7]: >100 µg/mL; Minimal inhibitory concentration (MIC) [8]: 3.13 µg/mL; Minimal inhibitory concentration (MIC) [9]: 1.56 µg/mL; Minimal inhibitory concentration (MIC) [10]: 0.39 µg/mL; Minimal inhibitory concentration (MIC) [11]: 25 µg/mL; Minimal inhibitory concentration (MIC) [12]: 0.78 µg/mL; Minimal inhibitory concentration (MIC) [13]: 0.39 µg/mL
Cc1cccc(C=C(F)OCC2COC(Cn3cncn3)(c3ccc(Cl)cc3Cl)O2)c1 (mixture of isomers) [Ex. 70]	50.0 µg/mL	100 µg/mL	25.0 µg/mL	25.0 µg/mL	6.25 µg/mL	100 µg/mL	>100 µg/mL	–	–	–	–	–	–	–	–	–	–	–	–	–	Minimal inhibitory concentration (MIC) [6]: 50.0 µg/mL; Minimal inhibitory concentration (MIC) [7]: 100 µg/mL; Minimal inhibitory concentration (MIC) [8]: 3.13 µg/mL; Minimal inhibitory concentration (MIC) [9]: 3.13 µg/mL; Minimal inhibitory concentration (MIC) [10]: 0.78 µg/mL; Minimal inhibitory concentration (MIC) [11]: 25.0 µg/mL; Minimal inhibitory concentration (MIC) [12]: 3.13 µg/mL; Minimal inhibitory concentration (MIC) [13]: 3.13 µg/mL
Cc1cc(C)cc(C=C(F)OCC2COC(Cn3cncn3)(c3ccc(Cl)cc3Cl)O2)c1 (mixture of isomers) [Ex. 73]	–	–	50.0 µg/mL	50.0 µg/mL	–	–	–	>100 µg/mL	>100 µg/mL	12.5 µg/mL	100 µg/mL	>100 µg/mL	50.0 µg/mL	>100 µg/mL	12.5 µg/mL	6.25 µg/mL	1.56 µg/mL	50.0 µg/mL	25.0 µg/mL	25.0 µg/mL	–

More lines, main results first:

Minimal inhibitory concentration (MIC) [1]	Minimal inhibitory concentration (MIC) [2]	Minimal inhibitory concentration (MIC) [3]	Minimal inhibitory concentration (MIC) (Candida albicans C1-2)	Minimal inhibitory concentration (MIC) [4]	Minimal inhibitory concentration (MIC) (Candida krusei K. 11655)	Minimal inhibitory concentration (MIC) [5]	Minimal inhibitory concentration(MIC), A furnigatus B. 19119 [1]	Minimal inhibitory concentration(MIC), A. niger A. 16404 [2]	Minimal inhibitory concentration(MIC), C. albicans IFO. 1385 [4]	Minimal inhibitory concentration(MIC), C. krusei K. 11655 (Candida krusei K. 11655)	Minimal inhibitory concentration(MIC), C. parapsitosis A. 7330 [5]	Minimal inhibitory concentration(MIC), C. pseudotropicalis K. 11658 [6]	Minimal inhibitory concentration(MIC), C. tropicalis A. 13803 [7]	Minimal inhibitory concentration(MIC), Cry. neoformans A. 34144 [8]	Minimal inhibitory concentration(MIC), Cry. neoformans B. 42419 [9]	Minimal inhibitory concentration(MIC), Cry. neoformans IFM. 40092 [10]	Minimal inhibitory concentration(MIC), T. glabrata B. 16205 [11]	Minimal inhibitory concentration(MIC), T. mentagrophytes A. 9129 [12]	Minimal inhibitory concentration(MIC), T. mentagrophytes B. 32663 [13]	SMILES	further results
–	–	50.0 µg/mL	50.0 µg/mL	–	–	–	100 µg/mL	100 µg/mL	6.25 µg/mL	100 µg/mL	100 µg/mL	25.0 µg/mL	100 µg/mL	1.56 µg/mL	1.56 µg/mL	0.20 µg/mL	25.0 µg/mL	6.25 µg/mL	6.25 µg/mL	Cc1ccc(C=C(F)OCC2COC(Cn3cncn3)(c3ccc(Cl)cc3Cl)O2)cc1 (mixture of isomers) [Ex. 71]	–
–	–	250 µg/mL	25.0 µg/mL	–	–	–	>100 µg/mL	>100 µg/mL	1.56 µg/mL	25.0 µg/mL	100 µg/mL	12.5 µg/mL	25.0 µg/mL	3.13 µg/mL	3.13 µg/mL	1.56 µg/mL	25.0 µg/mL	12.5 µg/mL	12.5 µg/mL	CCc1ccc(C=C(F)OCC2COC(Cn3cncn3)(c3ccc(Cl)cc3Cl)O2)cc1 (mixture of isomers) [Ex. 72]	–
–	–	100 µg/mL	100 µg/mL	–	–	–	>100 µg/mL	>100 µg/mL	12.5 µg/mL	100 µg/mL	>100 µg/mL	25.0 µg/mL	>100 µg/mL	6.25 µg/mL	3.13 µg/mL	0.78 µg/mL	50.0 µg/mL	12.5 µg/mL	12.5 µg/mL	COc1ccc(C=C(F)OCC2COC(Cn3cncn3)(c3ccc(Cl)cc3Cl)O2)cc1 (mixture of isomers) [Ex. 74]	–
